Some test systems named below: BT-549; DLD-1; LXFL 529; HOP-18; M19-MEL; XF498; SNB-78; KM-20L2; RXF 631.
Common to all, as to experiment: growth of human tumour cells (NCI), 48 h

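Briefly, cells in 96-well plates were exposed to five compound concentrations for 48 h, and endpoints were estimated by linear interpolation. GI50 marks 50% less growth.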 Activity calls are given as the source filed them. No stated cut-off is given here; in the data, active = GI50 up to about 1.1 µM and inactive = higher.

`Cc1ncc([N+](=O)[O-])n1CCNC(=O)Cn1c([N+](=O)[O-])cnc1C`: in the assay on BT-549, the GI50 is > 100 µM (inactive).
On the same count and under the same terms, with `C[N+](C)(C)c1ncnc2c1ncn2C1CCCO1` (stereo not given) the figure was > 100 µM (inactive); with `COc1nc2c(c(=O)[nH]1)N=C(c1ccc([N+](=O)[O-])cc1)CC(c1ccccc1)N2` (stereo not given), > 100 µM (inactive).
The same measure, in the same setting: then `CCOC(=O)C(C)c1nc2cc3cccnc3c(Cl)c2[nH]c1=O` (stereo not given), with > 100 µM (inactive).
Regarding `C[Si](C)(c1ccccc1)C1CC(=O)CC(=O)C1`, the GI50 in the assay on DLD-1, with LXFL 529, in the assay with HOP-18, in the assay on M19-MEL, in the assay with XF498 and in the assay with SNB-78 was > 100 µM (inactive) each time. Moreover, the GI50 with KM-20L2 was > 100 µM (inactive).
Turning to `O=C1c2cccc(O)c2C(=O)c2c(OC3OC(CO)C(O)C(O)C3O)cccc21` (stereo not given), in the assay on BT-549, the GI50 was 21.8 µM (inactive).
Same read-out and setting: with `CCN1CN(c2ccccc2)C2(CCN(CC3COc4ccccc4O3)CC2)C1=O` (stereo not given) the figure was 16 µM (inactive).
As for `COC(=O)n1c(=O)n(-c2ccccc2)c(=O)n1C(=O)OC`, in the assay with BT-549, the GI50 was > 100 µM (inactive).
Same read-out and setting: then `COC(=O)C1=C(CCCCO[Si](C)(C)C(C)(C)C)NC(=O)N2[C@@H](CCOCc3ccccc3)CC[C@H]12`, with 20.5 µM (inactive); and `Cc1ccc(NC(=O)c2cc(S(=O)(=O)Nc3n[nH]c(=O)n3-c3ccccc3)c(S)cc2Cl)cc1`, with > 100 µM (inactive); and `CC(C)(C)OC(=O)NCCCCC(N)C(N)=O` (stereo not given), with > 100 µM (inactive).
On the same count and under the same terms, then `COC(=O)[C@]1(c2cc3ccccc3[nH]2)CC2CNC1C1OC(C)(C)OC21` (stereo not given in full), with > 100 µM (inactive); and `Cc1nc(N)sc1/N=N/c1ccccc1Br`, with 24.7 µM (inactive).
Same read-out and setting: with `CC(C)/C(Cl)=N/OC(=O)Nc1cccc(C(F)(F)F)c1` the figure was 3.64 µM (inactive).
As to `COC(=O)C(C(=O)C(=O)Nc1ccc(C(F)(F)F)cc1[N+](=O)[O-])c1csc(-n2nc(-c3ccccc3)cc2-c2ccccc2)n1` (stereo not given), the GI50 in the assay with LXFL 529, with M19-MEL, in the assay with SNB-78 and with KM-20L2 was > 100 µM (inactive) in each case.
Take `C=C(CC[C@@H](C)[C@H]1CC[C@H]2[C@@H]3C[C@@H](O)[C@H]4C[C@@H](O)CC[C@]4(CO)[C@H]3CC[C@]12C)C(C)C`: the GI50 in the assay with BT-549 is 8.09 µM (inactive).
Still for that read-out and setting: then `C/C=C\C(CC(=O)NCCc1c[nH]c2ccccc12)CC(=O)OC` (stereo not given), with > 100 µM (inactive).
As to `Nc1nc2c(ncn2CCCC(c2ccccc2)P(=O)(O)O)c(=O)[nH]1` (stereo not given), the GI50 in the assay on DLD-1 is > 100 µM (inactive); in the assay with LXFL 529, > 100 µM (inactive); in the assay with HOP-18 it was 62.4 µM (inactive); in the assay with M19-MEL it was > 100 µM (inactive); in the assay on SNB-78, > 100 µM (inactive); in the assay with KM-20L2, > 100 µM (inactive).
As to `ClCCc1ccccc1CC1=NCCc2ccccc21`, the GI50 with BT-549 was 30.3 µM (inactive).
On the same count and under the same terms, with `O=c1c(Cc2ccc(Cl)cc2)nnc2sc(-c3ccc(-c4ccc(F)c(Cl)c4)o3)nn12` the figure was 78.2 µM (inactive); with `CC(Oc1ccccc1Cl)C(=O)NN1C(=O)CC(=O)N(c2ccccc2)C1=S` (stereo not given), 54.1 µM (inactive); with `C=CCN(c1cc(OC)c(NC(C)=O)cc1[N+](=O)[O-])S(C)(=O)=O`, > 100 µM (inactive).
Still for that read-out and setting: with `CC(=O)C(C(=O)c1ccc(C)cc1)[C@H]1OC(C)(C)O[C@H]1[C@H]1COC(C)(C)O1` (stereo not given in full) the figure was 6.3 µM (inactive); with `O=C1c2ccccc2CC12CCC1(CC2)OCCO1`, > 100 µM (inactive).
`COc1cccc(C2C(C(=O)Nc3cc(=O)n(C)c(=O)n3C)=C(C)NC(C)=C2C(=O)Nc2cc(=O)n(C)c(=O)n2C)c1O`: the GI50 with RXF 631, in the assay with DLD-1, in the assay with LXFL 529, in the assay with M19-MEL, in the assay on XF498 and in the assay with SNB-78 was > 100 µM (inactive) throughout. Also, the GI50 in the assay on KM-20L2 was > 100 µM (inactive).
`Cc1c(C)c(S(=O)(=O)N(CCCN)OCCCN)c(C)c2c1OC(C)(C)C2`: the GI50 in the assay with BT-549 is 30.5 µM (inactive).
Regarding `CCCC(S(=O)(=O)c1ccccc1)S(=O)(=O)c1ccccc1`, the GI50 in the assay on RXF 631, with DLD-1, with LXFL 529, in the assay on M19-MEL, in the assay with XF498 and in the assay on SNB-78 was > 100 µM (inactive) each time. For the same molecule, the GI50 in the assay with KM-20L2 is > 100 µM (inactive).
For the molecule `C[N+](C)(C)CC(=O)N/N=C(/C=C/c1ccccc1)CC1OC(=O)c2ccccc21` (stereo not given), the GI50 with DLD-1, with LXFL 529, with HOP-18, in the assay on M19-MEL, in the assay with XF498 and in the assay with SNB-78 was > 100 µM (inactive) each time. In the assay on KM-20L2, the GI50 was > 100 µM (inactive).
Consider `COC(=O)/C(C#N)=C(/NCCN)Nc1ccccc1`, for which, in the assay with BT-549, the GI50 is > 100 µM (inactive).
With `Cc1ccc2c(c1)C1(C)OC(C=CC1=O)O2` (stereo not given), in the assay with BT-549, the GI50 was 0.389 µM (active).
Same read-out and setting: then `CC(=O)Oc1ccc(/C=C/C(=O)O[C@@H](C(=O)O)[C@@H](OC(=O)/C=C/c2ccc(OC(C)=O)c(OC(C)=O)c2)C(=O)O)cc1OC(C)=O`, with > 100 µM (inactive); and `Nc1nc(Cl)cc(NCC2(CO)CC(CCCc3ccccc3)C2)n1` (stereo not given), with > 100 µM (inactive).
`C[n+]1c2ccccc2c(CNCC(=O)O)c2ccccc21`: the GI50 in the assay with DLD-1 is 0.659 µM (active); in the assay with LXFL 529, 1.07 µM (active); with HOP-18 it was 10.3 µM (inactive); with M19-MEL it was 4.43 µM (inactive); in the assay with XF498, 2.14 µM (inactive); in the assay on SNB-78, 11.3 µM (inactive). In the assay on KM-20L2, the GI50 was 0.327 µM (active).
For the molecule `O=C1Nc2ccccc2/C1=N/Nc1nc(-c2ccc([N+](=O)[O-])cc2)cs1`, in the assay with BT-549, the GI50 is 15.6 µM (inactive).
In the case of `O=[N+]([O-])c1cccc(S(=O)(=O)N/N=C/c2cc(I)cc([N+](=O)[O-])c2O)c1`, the GI50 was 42.5 µM (inactive) in the assay with DLD-1; 21.5 µM (inactive) in the assay on LXFL 529; 29.6 µM (inactive) in the assay with HOP-18; 34.8 µM (inactive) in the assay on M19-MEL; 22 µM (inactive) in the assay with SNB-78; 43 µM (inactive) in the assay with KM-20L2.
Turning to `Cc1ccccc1C(C#N)/C(=N/NC(=O)c1cc2ccccc2cc1O)C(=O)Nc1cccc(Cl)c1` (stereo not given), the GI50 in the assay on DLD-1 is 18.4 µM (inactive); in the assay on LXFL 529 it was 20.5 µM (inactive); with HOP-18 it was 5.37 µM (inactive); in the assay on M19-MEL it was 17.3 µM (inactive); with XF498 it was 14.8 µM (inactive); with SNB-78, 21.8 µM (inactive). The GI50 with KM-20L2 was 31.1 µM (inactive).
`O=c1c(-c2ccccc2)c2oc(c1-c1ccccc1)CSCc1cccc(c1)CSC2`: the GI50 in the assay on DLD-1 is 54.7 µM (inactive); in the assay with LXFL 529, 39 µM (inactive); in the assay on HOP-18, 27.8 µM (inactive); with M19-MEL it was 45.9 µM (inactive); with SNB-78, 82.8 µM (inactive); with KM-20L2, 67.9 µM (inactive).
For the molecule `O=c1[nH]cc(F)c(=O)n1C1OC(CO)C(O)C1O` (stereo not given), the GI50 with DLD-1, in the assay with LXFL 529, in the assay on HOP-18, in the assay on XF498, with SNB-78 and in the assay with KM-20L2 was > 100 µM (inactive) in each case.
As to `Clc1ccc(CCN2CCN(CCCc3ccccc3)CC2)cc1Cl`, the GI50 with BT-549 is 15.8 µM (inactive).
Same read-out and setting: then `CCN(CC)CCOc1ccccc1/C=C/c1noc2ccccc12`, with 16.3 µM (inactive).
With `O=C1C(N2C(=O)c3ccccc3C2=O)CN1C(COCc1ccccc1)c1ccc(OCc2ccccc2)cc1` (stereo not given), the GI50 in the assay with DLD-1, in the assay with LXFL 529, with M19-MEL, with XF498, in the assay on SNB-78 and with KM-20L2 was > 100 µM (inactive) each time.
As for `CC(=O)N1C(Nc2nccs2)CCN1c1ccccc1` (stereo not given), in the assay with BT-549, the GI50 was > 10 µM (inactive).
Consider `N#CCC1(c2ccc(Cl)cc2)NC(=O)c2ccccc21` (stereo not given), for which the GI50 in the assay with BT-549 was > 100 µM (inactive).
Consider `CCOc1ccc2c(c1)[n+]([O-])c(C(N)=O)c(N)[n+]2[O-]`, for which the GI50 in the assay on DLD-1, in the assay with LXFL 529, in the assay with HOP-18, in the assay on M19-MEL, with XF498 and in the assay with SNB-78 was > 100 µM (inactive) in each case. Further, the GI50 in the assay on KM-20L2 is > 100 µM (inactive).
`COc1ccc(-c2nc3c(nc2-c2ccc(OC)cc2)N(C)S(=O)(=O)N=C3N)cc1`: the GI50 was 33.3 µM (inactive) in the assay on DLD-1; 27.3 µM (inactive) with LXFL 529; 47.2 µM (inactive) with HOP-18; 31.5 µM (inactive) in the assay on M19-MEL; 40.6 µM (inactive) in the assay on KM-20L2.
On to `COc1cccc(/C=C/c2cnc3ccccc3n2)c1OC`, for which the GI50 in the assay on BT-549 is 17.4 µM (inactive).
On to `O=[N+]([O-])c1nccn1CCCNCCCn1ccnc1[N+](=O)[O-]`, for which the GI50 in the assay with BT-549 was > 100 µM (inactive).
On to `O=C1CN(c2ccccc2)C(=O)CN1NCNN1CC(=O)N(c2ccccc2)CC1=O`, for which, in the assay with BT-549, the GI50 was > 100 µM (inactive).
In the case of `COc1cccc2c(=O)oc(-c3ccc(C(C)(C)C)cc3)nc12`, the GI50 in the assay on BT-549 was 44 µM (inactive).
The same measure, in the same setting: then `CC(=O)Oc1ccc2oc(=O)cc(C)c2c1`, with > 100 µM (inactive); and `Cc1ccc(Cc2n[nH]c(=O)n2-c2ccccc2)cc1`, with > 100 µM (inactive).
Same read-out and setting: then `CN(C)c1ncc(-c2c[nH]c3ccccc23)nc1-c1c[nH]c2ccccc12`, with 13.8 µM (inactive); and `Cc1c(-c2ccccc2)nn2cc(-c3ccccc3)nnc12`, with 25.2 µM (inactive); and `c1ccc2c(c1)Sc1nccc3ccnc-2c13`, with 77.1 µM (inactive).
Still for that read-out and setting: with `CN(C)Cc1c(O)ccc2c1c1c(n2C)C(=O)c2ccccc2C1=O` the figure was 11.5 µM (inactive); with `Cc1cc(C)c2nccc(NCCCN(C)C)c2c1[N+](=O)[O-]`, 35.5 µM (inactive).

The values above are taken from ChEMBL document CHEMBL1201862, “PubChem BioAssay data set” (2004).
